Source: PubChem BioAssay (NCI)
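How tested: cells in 96-well plates exposed to compound for 48 hours at five concentrations. Definition used: TGI = concentration required for complete inhibition of growth.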

What was measured:
Assay in all cases: NCI tumour cell line growth inhibition, 48 h
[1] = system: SF-295 CNS
[2] = system: COLO 205 colon
[3] = system: MDA-N
[4] = system: SK-OV-3 ovarian
[5] = system: SK-MEL-5 melanoma
[6] = system: UACC-62 melanoma
[7] = system: EKVX NSCLC
[8] = system: SNB-75 CNS
[9] = system: MALME-3M melanoma
[10] = system: 786-0 renal
[11] = system: MDA-MB-435
[12] = system: T-47D breast
[13] = system: RXF 393 renal
[14] = system: HOP-92 NSCLC
[15] = system: SF-539 CNS
[16] = system: SF-268 CNS
[17] = system: SN12C renal
[18] = system: RPMI-8226 leukemia
[19] = system: M14 melanoma
[20] = system: IGROV1 ovarian
[21] = system: DU-145 prostate
[22] = system: HOP-62 NSCLC
[23] = system: PC-3 prostate
[24] = system: HT29 colon
[25] = system: CAKI-1 renal
[26] = system: A498 renal
[27] = system: CCRF-CEM leukemia
[28] = system: HS 578T breast
[29] = system: A549 NSCLC
[30] = system: LOX IMVI melanoma
[31] = system: MCF7 breast
[32] = system: SK-MEL-2 melanoma
[33] = system: OVCAR-8 ovarian
[34] = system: BT-549 breast
[35] = system: K-562 leukemia
[36] = system: SK-MEL-28 melanoma
[37] = system: MOLT-4 leukemia
[38] = system: NCI-H23 lung
[39] = system: OVCAR-3 ovarian
[40] = system: HL-60(TB) leukemia
[41] = system: OVCAR-5 ovarian
[42] = system: KM12 colon
[43] = system: SW-620 colon
[44] = system: NCI-H522 lung
[45] = system: HCT-15 colon
[46] = system: NCI/ADR-RES ovarian
[47] = system: OVCAR-4 ovarian
[48] = system: SNB-19 CNS
[49] = system: HCT-116 colon
[50] = system: UO-31 renal
[51] = system: ACHN renal
[52] = system: SR leukemia
[53] = system: TK-10 renal
[54] = system: U251 CNS
[55] = system: HCC-2998 colon
[56] = system: UACC-257 melanoma
[57] = system: NCI-H226 lung
[58] = system: NCI-H460 lung
[59] = system: MDA-MB-231 breast

**Q.** With `COc1cc(NC(C)=O)ccc1C(=O)N/N=C/c1ccco1` as the molecule, how does the TGI [1] read?
**A.** > 100 µM

**Q.** And the TGI [2]?
**A.** > 100 µM

**Q.** And the TGI [3]?
**A.** > 100 µM

**Q.** What about the TGI [4] of the same molecule?
**A.** > 100 µM

**Q.** What about the TGI [5] of the same molecule?
**A.** > 100 µM

**Q.** What about the TGI [6] of the same molecule?
**A.** > 100 µM

**Q.** And the TGI [7]?
**A.** > 100 µM

**Q.** What about the TGI [8] of the same molecule?
**A.** > 100 µM

**Q.** What about the TGI [9] of the same molecule?
**A.** > 100 µM

**Q.** What about the TGI [10] of the same molecule?
**A.** > 100 µM

**Q.** And the TGI [11]?
**A.** > 100 µM

**Q.** What about the TGI [12] of the same molecule?
**A.** > 100 µM

**Q.** And the TGI [13]?
**A.** > 100 µM

**Q.** And the TGI [14]?
**A.** > 100 µM

**Q.** And the TGI [15]?
**A.** > 100 µM

**Q.** And the TGI [16]?
**A.** > 100 µM

**Q.** And the TGI [17]?
**A.** > 100 µM

**Q.** And the TGI [18]?
**A.** > 100 µM

**Q.** What about the TGI [19] of the same molecule?
**A.** > 100 µM

**Q.** And the TGI [20]?
**A.** > 100 µM

**Q.** And the TGI [21]?
**A.** > 100 µM

**Q.** And the TGI [22]?
**A.** > 100 µM

**Q.** And the TGI [23]?
**A.** > 100 µM

**Q.** What about the TGI [24] of the same molecule?
**A.** > 100 µM

**Q.** And the TGI [25]?
**A.** > 100 µM

**Q.** What about the TGI [26] of the same molecule?
**A.** > 100 µM

**Q.** What about the TGI [27] of the same molecule?
**A.** > 100 µM

**Q.** And the TGI [28]?
**A.** > 100 µM

**Q.** What about the TGI [29] of the same molecule?
**A.** > 100 µM

**Q.** What about the TGI [30] of the same molecule?
**A.** > 100 µM

**Q.** And the TGI [31]?
**A.** > 100 µM

**Q.** And the TGI [32]?
**A.** > 100 µM

**Q.** What about the TGI [33] of the same molecule?
**A.** > 100 µM

**Q.** What about the TGI [34] of the same molecule?
**A.** > 100 µM

**Q.** And the TGI [35]?
**A.** > 100 µM

**Q.** What about the TGI [36] of the same molecule?
**A.** > 100 µM

**Q.** What about the TGI [37] of the same molecule?
**A.** > 100 µM

**Q.** What about the TGI [38] of the same molecule?
**A.** > 100 µM

**Q.** What about the TGI [39] of the same molecule?
**A.** > 100 µM

**Q.** What about the TGI [40] of the same molecule?
**A.** > 100 µM

**Q.** What about the TGI [41] of the same molecule?
**A.** > 100 µM

**Q.** What about the TGI [42] of the same molecule?
**A.** > 100 µM

**Q.** What about the TGI [43] of the same molecule?
**A.** > 100 µM

**Q.** And the TGI [44]?
**A.** > 100 µM

**Q.** And the TGI [45]?
**A.** > 100 µM

**Q.** What about the TGI [46] of the same molecule?
**A.** > 100 µM

**Q.** What about the TGI [47] of the same molecule?
**A.** > 100 µM

**Q.** What about the TGI [48] of the same molecule?
**A.** > 100 µM

**Q.** What about the TGI [49] of the same molecule?
**A.** > 100 µM

**Q.** And the TGI [50]?
**A.** > 100 µM

**Q.** What about the TGI [51] of the same molecule?
**A.** > 100 µM

**Q.** And the TGI [52]?
**A.** > 100 µM

**Q.** `COc1ccc(NC(=O)C(C#N)=C(SC)SC)cc1` was tested. Which TGI [1] did it give?
**A.** > 100 µM

**Q.** And the TGI [2]?
**A.** > 100 µM

**Q.** What about the TGI [53] of the same molecule?
**A.** > 100 µM

**Q.** And the TGI [3]?
**A.** > 100 µM

**Q.** And the TGI [4]?
**A.** > 100 µM

**Q.** What about the TGI [54] of the same molecule?
**A.** > 100 µM

**Q.** What about the TGI [5] of the same molecule?
**A.** > 100 µM

**Q.** What about the TGI [6] of the same molecule?
**A.** > 100 µM

**Q.** What about the TGI [7] of the same molecule?
**A.** > 100 µM

**Q.** And the TGI [55]?
**A.** > 100 µM

**Q.** What about the TGI [9] of the same molecule?
**A.** > 100 µM

**Q.** What about the TGI [10] of the same molecule?
**A.** > 100 µM

**Q.** What about the TGI [11] of the same molecule?
**A.** > 100 µM

**Q.** What about the TGI [12] of the same molecule?
**A.** > 100 µM

**Q.** And the TGI [13]?
**A.** > 100 µM

**Q.** And the TGI [14]?
**A.** 55.6 µM

**Q.** And the TGI [15]?
**A.** > 100 µM

**Q.** What about the TGI [16] of the same molecule?
**A.** > 100 µM

**Q.** What about the TGI [17] of the same molecule?
**A.** > 100 µM

**Q.** What about the TGI [18] of the same molecule?
**A.** > 100 µM

**Q.** What about the TGI [19] of the same molecule?
**A.** > 100 µM

**Q.** What about the TGI [20] of the same molecule?
**A.** > 100 µM

**Q.** What about the TGI [21] of the same molecule?
**A.** > 100 µM

**Q.** What about the TGI [22] of the same molecule?
**A.** > 100 µM

**Q.** What about the TGI [23] of the same molecule?
**A.** > 100 µM

**Q.** And the TGI [24]?
**A.** > 100 µM

**Q.** What about the TGI [25] of the same molecule?
**A.** > 100 µM

**Q.** And the TGI [26]?
**A.** > 100 µM

**Q.** And the TGI [27]?
**A.** > 100 µM

**Q.** And the TGI [56]?
**A.** > 100 µM

**Q.** What about the TGI [28] of the same molecule?
**A.** > 100 µM

**Q.** And the TGI [29]?
**A.** > 100 µM

**Q.** And the TGI [30]?
**A.** > 100 µM

**Q.** And the TGI [31]?
**A.** > 100 µM

**Q.** What about the TGI [32] of the same molecule?
**A.** > 100 µM

**Q.** And the TGI [34]?
**A.** > 100 µM

**Q.** And the TGI [35]?
**A.** > 100 µM

**Q.** What about the TGI [36] of the same molecule?
**A.** > 100 µM

**Q.** And the TGI [57]?
**A.** > 100 µM

**Q.** What about the TGI [37] of the same molecule?
**A.** > 100 µM

**Q.** And the TGI [38]?
**A.** > 100 µM

**Q.** And the TGI [39]?
**A.** > 100 µM

**Q.** And the TGI [40]?
**A.** > 100 µM

**Q.** And the TGI [41]?
**A.** > 100 µM

**Q.** What about the TGI [43] of the same molecule?
**A.** > 100 µM

**Q.** What about the TGI [58] of the same molecule?
**A.** > 100 µM

**Q.** And the TGI [44]?
**A.** > 100 µM

**Q.** And the TGI [45]?
**A.** > 100 µM

**Q.** What about the TGI [47] of the same molecule?
**A.** > 100 µM

**Q.** And the TGI [48]?
**A.** > 100 µM

**Q.** And the TGI [49]?
**A.** > 100 µM

**Q.** And the TGI [59]?
**A.** > 100 µM

**Q.** What about the TGI [50] of the same molecule?
**A.** > 100 µM

**Q.** And the TGI [51]?
**A.** > 100 µM

**Q.** What about the TGI [52] of the same molecule?
**A.** > 100 µM
